Laboratory results taken from ChEMBL document CHEMBL1909294, “Translating clinical findings into knowledge in drug safety evaluation--drug induced liver injury prediction system (DILIps)” (PLoS Comput Biol, 2011).

Legend:
[1] = system: Hepatotoxicity;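 on HepSE bilirubinemia: bilirubinemia hepatic side effect score drawn from the DILIps training data, a prediction system for drug-induced liver injury; call rule not given here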;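 on HepSE cholecystitis: Cholecystitis-related hepatic side effect score drawn from the DILIps (drug-induced liver injury prediction) training data set; call rule not given here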;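 on HepSE cholelithiasis: hepatic side effect score for cholelithiasis, drawn from the DILIps training data for predicting drug-induced liver injury; call rule not given here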;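 on HepSE cirrhosis: cirrhosis hepatic side effect score taken from the DILIps (drug-induced liver injury prediction) training set; call rule not given here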;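 on HepSE elevated liver function tests: hepatic side effect score for raised liver function tests, as recorded in the DILIps training set used for predicting drug-induced liver injury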; on HepSE hepatic failure: call rule not given here;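 on HepSE hepatomegaly: hepatic side effect score for hepatomegaly, taken from the training set of the DILIps drug-induced liver injury prediction system; call rule not given here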
[2] = system: Hepatotoxicity; remark: listed apart in the source;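 on HepSE bilirubinemia: bilirubinemia hepatic side effect score drawn from the DILIps training data, a prediction system for drug-induced liver injury; call rule not given here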;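 on HepSE cholecystitis: Cholecystitis-related hepatic side effect score drawn from the DILIps (drug-induced liver injury prediction) training data set; call rule not given here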;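 on HepSE cholelithiasis: hepatic side effect score for cholelithiasis, drawn from the DILIps training data for predicting drug-induced liver injury; call rule not given here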;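 on HepSE cirrhosis: cirrhosis hepatic side effect score taken from the DILIps (drug-induced liver injury prediction) training set; call rule not given here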;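 on HepSE elevated liver function tests: hepatic side effect score for raised liver function tests, as recorded in the DILIps training set used for predicting drug-induced liver injury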; on HepSE hepatic failure: call rule not given here;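 on HepSE hepatomegaly: hepatic side effect score for hepatomegaly, taken from the training set of the DILIps drug-induced liver injury prediction system; call rule not given here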
[3] = system: Hepatotoxicity; remark: listed apart in the source;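 on HepSE bilirubinemia: bilirubinemia hepatic side effect score drawn from the DILIps training data, a prediction system for drug-induced liver injury; call rule not given here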;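 on HepSE cholecystitis: Cholecystitis-related hepatic side effect score drawn from the DILIps (drug-induced liver injury prediction) training data set; call rule not given here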;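 on HepSE cholelithiasis: hepatic side effect score for cholelithiasis, drawn from the DILIps training data for predicting drug-induced liver injury; call rule not given here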;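 on HepSE cirrhosis: cirrhosis hepatic side effect score taken from the DILIps (drug-induced liver injury prediction) training set; call rule not given here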;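 on HepSE elevated liver function tests: hepatic side effect score for raised liver function tests, as recorded in the DILIps training set used for predicting drug-induced liver injury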; on HepSE hepatic failure: call rule not given here
[4] = system: Hepatotoxicity; remark: listed apart in the source;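 on HepSE bilirubinemia: bilirubinemia hepatic side effect score drawn from the DILIps training data, a prediction system for drug-induced liver injury; call rule not given here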;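 on HepSE cholecystitis: Cholecystitis-related hepatic side effect score drawn from the DILIps (drug-induced liver injury prediction) training data set; call rule not given here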;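 on HepSE cholelithiasis: hepatic side effect score for cholelithiasis, drawn from the DILIps training data for predicting drug-induced liver injury; call rule not given here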;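 on HepSE cirrhosis: cirrhosis hepatic side effect score taken from the DILIps (drug-induced liver injury prediction) training set; call rule not given here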;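 on HepSE elevated liver function tests: hepatic side effect score for raised liver function tests, as recorded in the DILIps training set used for predicting drug-induced liver injury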; on HepSE hepatic failure: call rule not given here
[5] = system: Hepatotoxicity; remark: listed apart in the source; on HepSE hepatic failure: call rule not given here
[6] = system: Hepatotoxicity; remark: listed apart in the source; on HepSE hepatic failure: call rule not given here
[7] = system: Hepatotoxicity; remark: listed apart in the source
[8] = system: Hepatotoxicity; remark: listed apart in the source
[9] = system: Hepatotoxicity; remark: listed apart in the source
[10] = system: Hepatotoxicity; remark: listed apart in the source
[11] = system: Hepatotoxicity; remark: listed apart in the source
[12] = system: Hepatotoxicity; remark: listed apart in the source
[13] = system: Hepatotoxicity; remark: listed apart in the source
[14] = system: Hepatotoxicity; remark: listed apart in the source

Row | Compound | HepSE_bilirubinemia [1] | HepSE_cholecystitis [2] | HepSE_cholelithiasis [3] | HepSE_cirrhosis [4] | HepSE_elevated liver function tests [5] | HepSE_hepatic failure [6] | HepSE_hepatic necrosis [7] | HepSE_hepatitis [8] | HepSE_hepatomegaly [9] | HepSE_jaundice [10] | HepSE_liver disease [11] | HepSE_liver fatty [12] | HepSE_liver function tests abnormal [13] | HepSE_Combined Scores [14] | further results
1 | CNC(=O)c1c(I)c(NC(C)=O)c(I)c(C(=O)O)c1I [IOTHALAMIC ACID] | 0 | 0 | 0 | 0 | 0 | 0 | 0 | 0 | 0 | 0 | 0 | 0 | 0 | 0 | 
2 | O=C(NCC(O)CO)c1c(I)c(C(=O)NCC(O)CO)c(I)c(N(CCO)C(=O)CO)c1I (configuration not stated) [IOVERSOL] | 0 | 0 | 0 | 0 | 0 | 0 | 0 | 0 | 0 | 0 | 0 | 0 | 0 | 0 | 
3 | CCCCC1=NC2(CCCC2)C(=O)N1Cc1ccc(-c2ccccc2-c2nnn[nH]2)cc1 [IRBESARTAN] | 0 | 0 | 0 | 0 | 1 | 0 | 0 | 1 | 0 | 1 | 0 | 0 | 0 | 3 | 
4 | CCc1c2c(nc3ccc(OC(=O)N4CCC(N5CCCCC5)CC4)cc13)-c1cc3c(c(=O)n1C2)COC(=O)[C@]3(O)CC [IRINOTECAN] | 0 | 0 | 0 | 0 | 0 | 0 | 0 | 0 | 1 | 1 | 0 | 0 | 0 | 2 | 
5 | Cc1cc(C(=O)NNCc2ccccc2)no1 [ISOCARBOXAZID] | 0 | 0 | 0 | 0 | 0 | 0 | 0 | 0 | 0 | 0 | 0 | 0 | 0 | 0 | 
6 | FC(F)OC(Cl)C(F)(F)F (configuration not stated) [ISOFLURANE] | 0 | 0 | 0 | 0 | 0 | 1 | 1 | 1 | 0 | 1 | 0 | 0 | 0 | 4 | 
7 | NNC(=O)c1ccncc1 [ISONIAZID] | 1 | 0 | 0 | 0 | 0 | 0 | 0 | 0 | 0 | 1 | 0 | 0 | 0 | 2 | 
8 | CC(C)NCC(O)c1ccc(O)c(O)c1 (configuration not stated) [ISOPROTERENOL] |  |  |  |  |  |  |  |  |  |  |  |  |  |  | HepSE_bilirubinemia ([1]; Liver): 0; HepSE_cholecystitis ([2]; Liver): 0; HepSE_cholelithiasis ([3]; Liver): 0; HepSE_cirrhosis ([4]; Liver): 0; HepSE_elevated liver function tests ([5]; Liver): 0; HepSE_hepatic failure ([6]; Liver): 0; HepSE_hepatic necrosis ([7]; Liver): 0; HepSE_hepatitis ([8]; Liver): 0; HepSE_hepatomegaly ([9]; Liver): 0; HepSE_jaundice ([10]; Liver): 0; HepSE_liver disease ([11]; Liver): 0; HepSE_liver fatty ([12]; Liver): 0; HepSE_liver function tests abnormal ([13]; Liver): 0; HepSE_Combined Scores ([14]; Liver): 0
9 | O=[N+]([O-])O[C@H]1CO[C@H]2[C@@H]1OC[C@H]2O[N+](=O)[O-] [ISOSORBIDE DINITRATE] | 0 | 0 | 0 | 0 | 0 | 0 | 0 | 0 | 0 | 0 | 0 | 0 | 0 | 0 | 
10 | O=[N+]([O-])O[C@@H]1CO[C@H]2[C@@H]1OC[C@@H]2O [ISOSORBIDE MONONITRATE] | 0 | 1 | 0 | 0 | 0 | 0 | 0 | 0 | 1 | 0 | 0 | 0 | 0 | 2 | 
11 | CC(COc1ccccc1)NC(C)C(O)c1ccc(O)cc1 (configuration not stated) [ISOXSUPRINE] | 0 | 0 | 0 | 0 | 0 | 0 | 0 | 0 | 0 | 0 | 0 | 0 | 0 | 0 | 
12 | COC(=O)C1=C(C)NC(C)=C(C(=O)OC(C)C)C1c1cccc2nonc12 (configuration not stated) [ISRADIPINE] | 0 | 0 | 0 | 0 | 1 | 0 | 0 | 0 | 0 | 0 | 0 | 0 | 0 | 1 | 
13 | CCC(C)n1ncn(-c2ccc(N3CCN(c4ccc(OCC5COC(Cn6cncn6)(c6ccc(Cl)cc6Cl)O5)cc4)CC3)cc2)c1=O (configuration not stated) [ITRACONAZOLE] | 1 | 0 | 0 | 1 | 0 | 1 | 0 | 1 | 0 | 1 | 1 | 0 | 1 | 7 | 
